The values that follow come from US11723877B2, “Microencapsulation process and product” (SPI PHARMA, INC., priority 2010, dated 2023).

The nature of data set [1]: Dissolution of orally dispersible acetaminophen powder, USP apparatus IV flow through cell, phosphate buffer pH 5.8. It is filed as physicochemical. The conditions noted are these: phosphate buffer pH 5.8, 37° C., 16 mL/min, 900 mL, ODP 160 mg, average of two. The text has this: A USP apparatus IV flow through cell was used to measure the dissolution of three orally dispersible powder blends of acetaminophen. Powder blends were made up of: Example 7 (SPI Pharma); uncoated Acetaminophen (Covidien, St. Louis, Mo.)) special granular; and Eurand (Dayton, Ohio) taste-masked Acetaminophen. Each sample was weighed and mixed by the process of spatulation until mixed. This mixture was passed through #30 mesh ASTM and packed in stick packs.
An amount of sample equivalent to contain 160 mg of Acetaminophen was weighed out and placed in the bead mixture of the flow through cell. At a rate of 16 ml/min, a 37° C. pH 5.8 phosphate buffer was pumped through cell and the effluent from the cell was collected in a reservoir vessel and samples removed for subsequent analysis in HPLC for Acetaminophen content at the time point specified. The data is an average of two determinations.

A short description of data set [2]: Dissolution of orally dispersible ibuprofen powder, USP apparatus IV flow through cell, phosphate buffer pH 7.2. It is filed as physicochemical. The conditions noted are these: phosphate buffer pH 7.2, 37° C., 16 mL/min, 900 mL, ODP 200 mg, average of two. The protocol:
A USP apparatus IV flow through cell was used to measure the dissolution of three orally dispersible powder blends of Ibuprofen. Powder blends were made up of: Example 6 (SPI Pharma); uncoated Ibuprofen 50 (BASF, Florham Park, N.J.); and Dasan Medichem (Soul, Korea) taste-masked Ibuprofen. Each sample was weighed and mixed by the process of spatulation until mixed. This mixture was passed through #30 mesh ASTM and packed in stick packs.
An amount of sample equivalent to contain 200 mg of Ibuprofen was weighed out and placed in the bead mixture of the flow through cell. At a rate of 16 ml/min, a 37° C. pH 7.2 phosphate buffer was pumped through cell and the effluent from the cell was collected in a reservoir vessel and samples removed for subsequent analysis in HPLC for Ibuprofen content at the time point specified. The data is an average of two determinations.

The next data set is described as follows: physchem. The conditions noted are these: aqueous buffer.
Data set [3] can be described thus: Acetaminophen dissolution, USP method (900 mL water, 50 rpm, Apparatus 2). In kind it is physicochemical. The note with it: first of five data columns, no own time in head (taken as 0 min). How it is done: Acetaminophen dissolution was compared between microcapsules prepared from Run #2 and Run #4, an uncoated acetaminophen standard and a commercial acetaminophen coated with ethylcellulose by USP dissolution method for Acetaminophen (900 mL water, 50 rpm, Apparatus 2).

With `CC(=O)Nc1ccc(O)cc1` [Uncoated Acetaminophen, Acetaminophen], the Acetaminophen dissolution % turned out to be 95% in data set [1] (5 min); 96% in data set [1] (10 min); 96% in data set [1] (15 min); 96% in data set [1] (30 min); 96% in data set [1] (45 min); 96% in data set [1] (60 min).

On to `CC(C)Cc1ccc(C(C)C(=O)O)cc1` (centres unmarked) [Plain API, Ibuprofen], for which the Ibuprofen dissolution % in data set [2] (5 min) was 70%; in data set [2] (10 min), 88%; in data set [2] (20 min), 91%; in data set [2] (30 min) it was 94%; in data set [2] (45 min) it was 94%; in data set [2] (60 min), 94%.

The solubility is the concentration that dissolves in the medium under given conditions. Low readings indicate a poorly soluble substance, high ones a readily soluble substance. In the data set “physchem”, `CC(C)Cc1ccc(C(C)C(=O)O)cc1` (centres unmarked) [uncoated ibuprofen, ibuprofen] displayed a solubility of less than 1000 µM.

As for `CC(=O)Nc1ccc(O)cc1` [Uncoated Acetaminophen STD, Acetaminophen], in data set [3], the “Percent (%) Drug Released” value stood at 0%.
